Values after ≈ are worked out from the molar mass of the structure shown. Like-named read-outs stand apart in the source and are kept apart here.
Legend:
[1] = system: ERK phosphorylation in HEKa cells; experiment: phospho-ERK in HEKa cells following EGFR inhibitors (Western blot); type: cell-based, human
Protocol: Human normal keratinocyte cells HEKa were purchased from Gibco Rhenium and seeded in 10 cm dishes (300,000 cells/dish) and incubated overnight at 37° C., 5% CO2. Next morning, the medium was replaced to a starvation medium for 2 hours and then the cells were treated for 2 additional hours with the test compounds. Post incubation, the cells were lyzed with RIPA and the protein extracts were analyzed by western blot for Phospho-ERK and total ERK. Untreated cells and 0.1% DMSO treated cells were used as negative control. HKGS growth factors was used as a positive control.
Western blot: 7.5 μg of total extract was loaded on 10% acrylamide gel. Following transfer, the membranes were blocked with TBST/5% skimmed milk and then incubated with Mouse anti Phospho-ERK (1:1000 in TBST 5% BSA, ON at 4° C.) and goat anti Mouse HRP (1:10,000 in TBST 5% BSA, 1-hour RT). The membranes were exposed using SuperSignal West Pico Chemiluminescent Substrate.
The HRP was then inactivated by incubating the membranes for 1 hour with 0.5% sodium azide Following washes and ECL exposure in order to ensure absence of signal, the membranes were re-blocked for 15 min with TBST/5% skimmed milk and then incubated with Rabbit anti total ERK2 (1:500 in TBST 5% BSA, ON at 4° C.), goat anti Rabbit HRP (1:5,000 in TBST 5% BSA, 1-hour RT) and finally exposed using the SuperSignal West Pico Chemiluminescent Substrate. The films were scanned and the signal were quantified using ImageJ software. The results were calculated as Phospho-ERK/total ERK.
HKGS was used as a positive control.

[2] = system: BALB/c-3T3 mouse fibroblasts; experiment: 3T3 neutral red uptake phototoxicity assay; type: cell-based; settings: for IC50: Mus musculus, BALB/c3T3, light or radiation study
Protocol: Therefore, the compounds of the present disclosure were screened for phototoxicity using the 3T3 natural red uptake assay.
In brief, BALB/c-3T3 mouse fibroblasts (originally obtained from ATCC) were seeded in 96-well plates at 12,000 cells per well, and grown for 24 hr. Test compounds and the positive control (chlorpromazine) were solubilized and serially diluted in DMSO. The negative control (histidine) was solubilized and diluted in HBSS. A dilution for all test articles was then made into HBSS at the final testing concentrations. At the start of the assay, the growth medium was removed from the plates and replaced with test agent dilution. Six replicates were used for each concentration. Cells were incubated in the dark with test article for 1 h, exposed to UVA light (2.5 J/cm2 over 18 min) and incubated 24 hrs. in the dark. A parallel non-irradiated plate was treated similarly, except it was stored in the dark, rather than illuminated.
For Neutral Red staining, medium was removed and fresh medium containing 25 μg/mL of Neutral Red (Sigma) was added. After three hours incubation, the cells were washed with PBS, and the cellular dye was solubilized with 1% acetic acid in 50% ethanol. Cellular Neutral Red was measured by its absorbance at 540 nm.
Data analysis: An IC50 (concentration that causes 50% reduction in viability) was calculated for each condition by linear interpolation.
A Photo-Irritation Factor (PIF) was calculated: PIF=IC50(−Irr)/IC50(+Irr)
PIF>5 indicates phototoxicity; 2<PIF<5 indicates probable phototoxicity; PIF<2 indicates no phototoxicity
In addition, the Mean Photo Effect (MPE) was calculated by comparison of the complete concentration-response curves. MPE is a weighted average of the difference in response of equivalent doses normalized by the shift in IC50.
MPE>0.15 indicates phototoxicity; 0.1<MPE<0.15 indicates probable phototoxicity; MPE<0.1 indicates no phototoxicity.

[3] = MPE>0.15 phototoxicity, 0.1-0.15 probable, <0.1 none
[4] = non-irradiated, Neutral Red, read-out: Cell Viability IC50 Minus UVA
[5] = PIF=IC50(−Irr)/IC50(+Irr), >5 phototoxicity, 2-5 probable, <2 none

Structure (SMILES) | Comment (photo-toxicity assessment) [2] | Mean MPE [2, 3] | IC50 [2, 4] [µg/mL] | Mean PIF [2, 5] | also measured
C#Cc1cccc(Nc2ncnc3cc(OCCOC)c(OCCOC)cc23)c1 [Erlotinib, erlotinib, reference compound] |  |  |  |  | phospho ERK compared to HKGS treated cells [1]: decreased
Cc1ccc2c(Nc3ccc(Cl)cc3)nccc2c1Nc1ncccc1-c1ncnc2[nH]cnc12 [Compound C-1] | Non |  |  |  | phototoxicity (3T3 NRU), stated in words [2]: did not show phototoxicity; IC50 ([2]; 0.3 h, read-out: Cell Viability IC50 Plus UVA): 18.1 µg/mL; IC50 ([2]; read-out: Cell Viability IC50 Minus UVA): 14 µg/mL (≈ 29.2 µM); Mean MPE ([2]; mouse, 24 h): −0.011; Mean PIF ([2]; mouse, 24 h): 0.8
CN(C)CCCN1c2ccccc2Sc2ccc(Cl)cc21 [Chloropromazine, chlorpromazine] | Phototoxic | 0.477 | 31 (≈ 97.2 µM) | 31.6 | 
N[C@@H](Cc1c[nH]cn1)C(=O)O [Histidine, histidine] |  | 0.036 | > 1000 | 1 | IC50 ([2]; 0.3 h, UVA 2.5 J/cm2 over 18 min, Neutral Red, read-out: Cell Viability IC50 Plus UVA): > 1000 µg/mL

From US11339163B2, “BRaf inhibitors and use thereof for treatment of cutaneous reactions” (Lutris Pharma Ltd., priority 2017, dated 2022)
